Test results from patent US8435762B2, “Chimeric ligand-gated ion channels and methods of use thereof” (Howard Hughes Medical Institute, priority 2008, dated 2013).
Structures can show the parent of a compound that is named as a salt.

Key:
α7-GlyR L141F = biological target: T1, α7-GlyR L141F (Homo sapiens, UniProt P36544, L141F); experiment: whole cell voltage clamp recordings (Iss, Ipeak); type: cell-based; conditions: IPD GlyR
T1 construct: expressed in transfected cells; host or cells: HEK 293 cells (A15); cortical neurons transduced with AAV, synapsin promoter (A22)
T1 sequence (P36544 with tags, fused parts or gaps L141F): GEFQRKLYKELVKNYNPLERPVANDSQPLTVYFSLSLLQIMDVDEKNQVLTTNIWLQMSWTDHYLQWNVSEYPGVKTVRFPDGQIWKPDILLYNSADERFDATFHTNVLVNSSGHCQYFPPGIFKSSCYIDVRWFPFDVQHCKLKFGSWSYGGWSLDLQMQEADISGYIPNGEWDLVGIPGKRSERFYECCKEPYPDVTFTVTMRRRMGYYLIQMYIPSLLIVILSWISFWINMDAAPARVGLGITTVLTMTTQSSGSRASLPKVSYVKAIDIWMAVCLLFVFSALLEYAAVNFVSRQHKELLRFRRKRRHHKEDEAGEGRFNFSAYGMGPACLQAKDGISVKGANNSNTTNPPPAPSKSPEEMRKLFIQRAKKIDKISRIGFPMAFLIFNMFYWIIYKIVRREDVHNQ

α7-5HT3 W77F = biological target: T2, α7-5HT3 W77F (Homo sapiens, UniProt P36544, M226I/T225I/W77F); experiment: fluorescence membrane potential (MP) assay, HEK 293 cells; type: cell-based, human/mouse
T2 construct: expressed in transfected cells; host or cells: HEK 293 cells (ATCC CRL-1573)
T2 sequence (P36544 with tags, fused parts or gaps W77F/T225I/M226I): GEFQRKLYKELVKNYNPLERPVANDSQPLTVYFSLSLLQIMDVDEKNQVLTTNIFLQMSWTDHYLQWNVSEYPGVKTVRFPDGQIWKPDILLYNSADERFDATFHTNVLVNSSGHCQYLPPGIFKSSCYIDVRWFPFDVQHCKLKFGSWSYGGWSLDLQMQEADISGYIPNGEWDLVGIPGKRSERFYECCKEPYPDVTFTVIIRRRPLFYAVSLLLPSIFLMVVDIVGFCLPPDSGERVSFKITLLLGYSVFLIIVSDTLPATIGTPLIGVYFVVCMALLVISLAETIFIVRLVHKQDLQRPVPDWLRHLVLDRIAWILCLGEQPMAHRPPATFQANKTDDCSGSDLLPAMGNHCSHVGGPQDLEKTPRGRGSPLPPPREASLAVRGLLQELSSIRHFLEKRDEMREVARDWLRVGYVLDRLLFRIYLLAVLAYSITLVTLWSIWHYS

α7-5HT3 Q79G [1] = biological target: T3, α7-5HT3 Q79G (Homo sapiens, UniProt P36544, M226I/Q79G/T225I); experiment: whole cell voltage clamp recordings (Iss, Ipeak); type: cell-based, human/mouse
T3 construct: expressed in transfected cells; host or cells: HEK 293 cells (ATCC CRL-1573)
T3 sequence (P36544 with tags, fused parts or gaps Q79G/T225I/M226I): as the sequence (P36544 with tags, fused parts or gaps W77F/T225I/M226I) above, with F55W, Q57G counted along it

α7-5HT3 Q79G [2] = biological target: T3, α7-5HT3 Q79G; experiment: fluorescence membrane potential (MP) assay, HEK 293 cells; type: cell-based, human/mouse; conditions: read-out: EC50-MP; α7 Q79G, IPD 5HT3; value (s.e.m.)
[3] = biological target: T4, α7-5HT3 wt chimeric receptor (Homo sapiens, UniProt P36544, M226I/T225I); experiment: as above; type: cell-based, human/mouse; conditions: read-out: EC50-MP; α7 wt, IPD 5HT3; value (s.e.m.)
T4 construct: expressed in transfected cells; host or cells: HEK 293 cells
T4 sequence (P36544 with tags, fused parts or gaps T225I/M226I): as the sequence (P36544 with tags, fused parts or gaps W77F/T225I/M226I) above, with F55W counted along it

α7-5HT3 L141F = biological target: T5, α7-5HT3 L141F (Homo sapiens, UniProt P36544, L141F/M226I/T225I); experiment: as above; type: cell-based, human/mouse; conditions: read-out: EC50-MP; α7 L141F, IPD 5HT3; value (s.e.m.)
T5 construct: expressed in transfected cells; host or cells: HEK 293 cells (ATCC CRL-1573)
T5 sequence (P36544 with tags, fused parts or gaps L141F/T225I/M226I): as the sequence (P36544 with tags, fused parts or gaps W77F/T225I/M226I) above, with F55W, L119F counted along it

α7-5HT3 Y210F = biological target: T6, α7-5HT3 Y210F (Homo sapiens, UniProt P36544, M226I/T225I/Y210F); experiment: efficacy on ACh-insensitive mutant; type: cell-based, human/mouse
T6 construct: expressed in transfected cells; host or cells: not restated
T6 sequence (P36544 with tags, fused parts or gaps Y210F/T225I/M226I): as the sequence (P36544 with tags, fused parts or gaps W77F/T225I/M226I) above, with F55W, Y188F counted along it

α7-5HT3 Y115F = biological target: T7, α7-5HT3 Y115F (Homo sapiens, UniProt P36544, M226I/T225I/Y115F); experiment: efficacy on ACh-insensitive mutant; type: cell-based, human/mouse
T7 construct: expressed in transfected cells; host or cells: not restated
T7 sequence (P36544 with tags, fused parts or gaps Y115F/T225I/M226I): as the sequence (P36544 with tags, fused parts or gaps W77F/T225I/M226I) above, with F55W, Y93F counted along it

[4] = biological target: T4, α7-5HT3 wt chimeric receptor; experiment: whole cell voltage clamp recordings (Iss, Ipeak); type: cell-based, human/mouse
[5] = EC50-Ipeak, peak current, *complex: multiphasic dose response

In the case of `COc1ccc(Cl)cc1C(=O)N[C@@H]1CN2CCC1CC2` [Compound 118S, (S)-5-chloro-2-methoxy-N-(quinuclidin-3-yl)benzamide TFA], the EC50 (α7-GlyR L141F; [5]) is reported as 3200 nM and the EC50 (α7-GlyR L141F; EC50-Iss, steady state current) is reported as 3000 nM.
With `COc1ccc(F)cc1C(=O)N[C@@H]1CN2CCC1CC2` [Compound 119S, (S)-5-fluoro-2-methoxy-N-(quinuclidin-3-yl)benzamide TFA] the EC50 (α7-GlyR L141F; [5]) was 3800 nM and the EC50 (α7-GlyR L141F; EC50-Iss, steady state current) was 2500 nM.
With `O=C(N[C@@H]1CN2CCC1CC2)c1ccc(-c2ccc(F)cc2)cc1` [Compound 132S, (S)-4′-fluoro-N-(quinuclidin-3-yl)biphenyl-4-carboxamide TFA] the “selective activation of α7-5HT3 W77F over receptors with Q79G and L141F mutations” value (α7-5HT3 W77F; FIG. 5 dose response curves) was “selectively activated” and the EC50 (α7-5HT3 W77F; read-out: EC50-MP, α7 W77F, IPD 5HT3, value (s.e.m.)) was 4300 ± 500 nM.
`CCCc1ccc(C(=O)N[C@@H]2CN3CCC2CC3)cc1` [Compound 165S, (S)-4-propyl-N-(quinuclidin-3-yl)benzamide TFA] gave an EC50 (α7-5HT3 Q79G [1]; read-out: EC50-Ipeak, peak current, IPD 5HT3) of 5900 nM, an EC50 (α7-5HT3 Q79G [1]; read-out: EC50-Iss, steady state current, IPD 5HT3) of 900 nM and an EC50 (α7-5HT3 Q79G [2]) of 1900 nM.
In the case of `c1ccc2c(c1)CC1C(=NN2)C2CCN1CC2` (centres unmarked) [Compound 212], the EC50 [3] is reported as > 100000 nM, the EC50 (α7-5HT3 L141F) is reported as 750 nM and the EC50 (α7-5HT3 Q79G [2]) is reported as > 100000 nM.
In the case of `O=C(N[C@H]1CN2CCC1CC2)c1ccc(Cl)cc1` [PNU-282987], the “efficacy with α7-5HT3 carrying Y210F” value (α7-5HT3 Y210F) is reported as “greatly reduced or eliminated”, the EC50 [3] is reported as 60 nM and the “efficacy with α7-5HT3 carrying Y115F” value (α7-5HT3 Y115F) is reported as “greatly reduced or eliminated”. It also gave an EC50 ([4]; peak current, IPD 5HT3, read-out: EC50-Ipeak) of 800 nM and an EC50 ([4]; steady state current, IPD 5HT3, read-out: EC50-Iss) of 90 nM.
